Test [1] addresses T1, Cyclin-dependent kinase-like 2 (Homo sapiens) (UniProt Q92772).
T1 sequence (whole entry): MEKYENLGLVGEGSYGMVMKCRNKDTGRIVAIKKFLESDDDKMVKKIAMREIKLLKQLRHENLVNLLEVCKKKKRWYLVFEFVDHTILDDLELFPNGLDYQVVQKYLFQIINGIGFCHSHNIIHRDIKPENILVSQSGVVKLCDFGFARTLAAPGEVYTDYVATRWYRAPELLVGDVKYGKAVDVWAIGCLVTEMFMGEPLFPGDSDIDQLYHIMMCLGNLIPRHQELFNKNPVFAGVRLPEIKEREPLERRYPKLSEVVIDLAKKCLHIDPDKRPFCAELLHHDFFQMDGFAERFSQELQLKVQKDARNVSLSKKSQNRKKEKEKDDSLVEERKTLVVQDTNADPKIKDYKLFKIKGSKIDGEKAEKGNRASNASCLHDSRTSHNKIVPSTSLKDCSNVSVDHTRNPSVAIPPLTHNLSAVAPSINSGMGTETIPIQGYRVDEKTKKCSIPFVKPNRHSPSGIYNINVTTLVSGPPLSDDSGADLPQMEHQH
Description: Selectivity interaction (KinomeScan (DiscoverX)) EUB0000666a CDKL2. To be noted: at 10 µM.

Test [2] has as its target Insulin receptor (Homo sapiens, UniProt P06213). Description: Selectivity interaction (SelectScreen profiling (Invitrogen)) EUB0000607a INSR. To be noted: at 2 µM.
In test [3] the target is T2, Phosphatidylinositol 4,5-bisphosphate 3-kinase catalytic subunit delta isoform (Homo sapiens) (UniProt O00329).
T2 sequence (whole entry): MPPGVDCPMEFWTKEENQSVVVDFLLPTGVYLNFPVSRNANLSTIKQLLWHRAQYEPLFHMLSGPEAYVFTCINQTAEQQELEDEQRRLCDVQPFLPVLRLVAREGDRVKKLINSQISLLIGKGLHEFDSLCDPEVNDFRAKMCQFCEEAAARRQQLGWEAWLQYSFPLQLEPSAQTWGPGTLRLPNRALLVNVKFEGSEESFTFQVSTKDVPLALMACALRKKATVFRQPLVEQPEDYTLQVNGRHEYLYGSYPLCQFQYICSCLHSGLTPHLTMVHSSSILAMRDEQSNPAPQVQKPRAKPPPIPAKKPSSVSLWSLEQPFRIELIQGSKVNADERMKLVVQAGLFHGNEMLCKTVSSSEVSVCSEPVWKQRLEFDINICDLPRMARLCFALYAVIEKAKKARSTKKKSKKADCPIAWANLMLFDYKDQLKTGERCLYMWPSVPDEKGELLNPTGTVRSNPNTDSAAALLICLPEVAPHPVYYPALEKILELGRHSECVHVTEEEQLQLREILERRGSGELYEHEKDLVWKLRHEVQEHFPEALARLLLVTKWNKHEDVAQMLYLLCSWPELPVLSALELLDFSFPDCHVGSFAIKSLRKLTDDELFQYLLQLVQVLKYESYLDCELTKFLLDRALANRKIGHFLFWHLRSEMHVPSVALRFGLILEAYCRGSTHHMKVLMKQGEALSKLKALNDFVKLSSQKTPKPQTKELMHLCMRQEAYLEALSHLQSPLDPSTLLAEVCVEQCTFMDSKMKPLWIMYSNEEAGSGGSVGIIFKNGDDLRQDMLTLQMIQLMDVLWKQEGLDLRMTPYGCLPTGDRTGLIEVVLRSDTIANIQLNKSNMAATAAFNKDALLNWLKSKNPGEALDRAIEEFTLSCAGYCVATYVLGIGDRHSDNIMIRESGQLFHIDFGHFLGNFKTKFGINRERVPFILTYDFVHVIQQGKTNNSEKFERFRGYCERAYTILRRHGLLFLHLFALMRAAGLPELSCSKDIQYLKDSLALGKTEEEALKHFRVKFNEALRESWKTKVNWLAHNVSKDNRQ
Description: Selectivity interaction (ActivX KiNativ screen (kinase selectivity in THP-1 cell lysates)) EUB0000639a PIK3CD. The format is subcellular. To be noted: lysate, at 5 µM.

Test [4] concerns the target Phosphatidylinositol 4,5-bisphosphate 3-kinase catalytic subunit beta isoform (Homo sapiens) (UniProt P42338). Description: Selectivity interaction (ActivX KiNativ screen (kinase selectivity in THP-1 cell lysates)) EUB0000639a PIK3CB. Format: subcellular. The note with it: lysate.
Test [5] addresses T3, Tyrosine-protein kinase receptor TYRO3 (Homo sapiens) (UniProt Q06418).
T3 sequence (whole entry): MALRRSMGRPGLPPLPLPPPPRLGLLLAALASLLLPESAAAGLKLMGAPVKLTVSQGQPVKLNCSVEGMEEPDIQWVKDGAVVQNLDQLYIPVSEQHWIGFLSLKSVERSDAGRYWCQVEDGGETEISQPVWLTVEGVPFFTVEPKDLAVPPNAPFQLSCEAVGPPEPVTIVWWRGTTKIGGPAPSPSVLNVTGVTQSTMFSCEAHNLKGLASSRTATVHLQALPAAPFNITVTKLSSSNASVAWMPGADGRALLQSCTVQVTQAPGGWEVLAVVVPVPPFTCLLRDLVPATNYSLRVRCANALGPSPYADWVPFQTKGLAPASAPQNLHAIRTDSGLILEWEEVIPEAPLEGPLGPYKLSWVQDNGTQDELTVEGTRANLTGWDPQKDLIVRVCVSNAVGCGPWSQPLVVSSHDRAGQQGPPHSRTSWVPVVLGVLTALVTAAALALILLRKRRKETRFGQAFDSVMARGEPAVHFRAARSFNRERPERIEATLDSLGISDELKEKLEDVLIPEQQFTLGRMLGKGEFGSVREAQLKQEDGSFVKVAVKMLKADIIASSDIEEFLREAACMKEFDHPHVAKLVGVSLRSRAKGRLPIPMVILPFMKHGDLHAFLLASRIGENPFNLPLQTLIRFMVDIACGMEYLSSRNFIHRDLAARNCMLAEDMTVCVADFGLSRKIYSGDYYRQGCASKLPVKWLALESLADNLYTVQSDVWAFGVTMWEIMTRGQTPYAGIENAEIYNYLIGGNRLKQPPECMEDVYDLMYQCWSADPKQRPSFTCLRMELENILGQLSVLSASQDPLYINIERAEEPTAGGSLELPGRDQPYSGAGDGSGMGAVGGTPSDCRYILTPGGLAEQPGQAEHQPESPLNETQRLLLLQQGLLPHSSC
Description: Selectivity interaction (Kinase panel (Invitrogen)) EUB0000639a TYRO3. To be noted: at 200 nM.

The subject of test [6] is Phosphatidylinositol 4,5-bisphosphate 3-kinase catalytic subunit alpha isoform (Homo sapiens), P42336 [E542K]. Description: (§1) Selectivity interaction (KinomeScan (DiscoverX)) EUB0000655a PIK3CA. The note with it: at 10 µM.
Test [7] concerns the target Phosphatidylinositol 4,5-bisphosphate 3-kinase catalytic subunit alpha isoform (Homo sapiens) (UniProt P42336). Described as §1. The note with it: at 10 µM.
Test [8] addresses DNA (cytosine-5)-methyltransferase 3B (Homo sapiens) (UniProt Q9UBC3). Description: Selectivity interaction (Transferase panel (protein, RNA, and DNA methyltransferases. and EP300 (acetyltransferase))) EUB0000270b DNMT3B.

Phosphatidylinositol 4,5-bisphosphate 3-kinase catalytic subunit beta isoform (Homo sapiens), sequence (P42338 whole entry, looked up, canonical isoform): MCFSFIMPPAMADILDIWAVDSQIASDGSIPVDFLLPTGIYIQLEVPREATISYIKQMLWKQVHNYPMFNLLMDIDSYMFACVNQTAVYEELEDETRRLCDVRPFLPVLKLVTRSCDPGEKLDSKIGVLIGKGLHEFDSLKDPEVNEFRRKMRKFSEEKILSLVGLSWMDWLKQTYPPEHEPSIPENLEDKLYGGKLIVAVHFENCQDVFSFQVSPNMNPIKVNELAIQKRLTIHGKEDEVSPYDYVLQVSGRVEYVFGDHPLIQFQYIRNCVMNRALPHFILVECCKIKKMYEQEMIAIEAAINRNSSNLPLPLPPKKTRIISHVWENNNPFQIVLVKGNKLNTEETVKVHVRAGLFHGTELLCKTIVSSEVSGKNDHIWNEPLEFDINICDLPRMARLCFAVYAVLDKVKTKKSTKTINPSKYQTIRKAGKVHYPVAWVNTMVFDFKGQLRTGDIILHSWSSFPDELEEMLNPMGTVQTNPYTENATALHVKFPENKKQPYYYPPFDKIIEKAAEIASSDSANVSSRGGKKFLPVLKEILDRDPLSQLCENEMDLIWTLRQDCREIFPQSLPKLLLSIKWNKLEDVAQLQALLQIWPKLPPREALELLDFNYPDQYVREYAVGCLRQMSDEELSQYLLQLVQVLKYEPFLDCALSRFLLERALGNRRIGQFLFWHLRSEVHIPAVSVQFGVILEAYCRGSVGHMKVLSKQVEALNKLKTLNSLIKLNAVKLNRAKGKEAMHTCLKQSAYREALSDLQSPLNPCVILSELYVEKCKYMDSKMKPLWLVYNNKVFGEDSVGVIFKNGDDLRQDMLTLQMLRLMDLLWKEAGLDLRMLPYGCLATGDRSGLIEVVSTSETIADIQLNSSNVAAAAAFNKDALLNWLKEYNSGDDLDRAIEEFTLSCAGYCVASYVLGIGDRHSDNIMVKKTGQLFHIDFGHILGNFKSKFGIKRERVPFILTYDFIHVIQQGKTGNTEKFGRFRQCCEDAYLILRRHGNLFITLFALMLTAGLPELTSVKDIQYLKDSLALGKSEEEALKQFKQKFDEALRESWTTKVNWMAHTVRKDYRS
Insulin receptor, sequence (P06213 28-758 limits assumed): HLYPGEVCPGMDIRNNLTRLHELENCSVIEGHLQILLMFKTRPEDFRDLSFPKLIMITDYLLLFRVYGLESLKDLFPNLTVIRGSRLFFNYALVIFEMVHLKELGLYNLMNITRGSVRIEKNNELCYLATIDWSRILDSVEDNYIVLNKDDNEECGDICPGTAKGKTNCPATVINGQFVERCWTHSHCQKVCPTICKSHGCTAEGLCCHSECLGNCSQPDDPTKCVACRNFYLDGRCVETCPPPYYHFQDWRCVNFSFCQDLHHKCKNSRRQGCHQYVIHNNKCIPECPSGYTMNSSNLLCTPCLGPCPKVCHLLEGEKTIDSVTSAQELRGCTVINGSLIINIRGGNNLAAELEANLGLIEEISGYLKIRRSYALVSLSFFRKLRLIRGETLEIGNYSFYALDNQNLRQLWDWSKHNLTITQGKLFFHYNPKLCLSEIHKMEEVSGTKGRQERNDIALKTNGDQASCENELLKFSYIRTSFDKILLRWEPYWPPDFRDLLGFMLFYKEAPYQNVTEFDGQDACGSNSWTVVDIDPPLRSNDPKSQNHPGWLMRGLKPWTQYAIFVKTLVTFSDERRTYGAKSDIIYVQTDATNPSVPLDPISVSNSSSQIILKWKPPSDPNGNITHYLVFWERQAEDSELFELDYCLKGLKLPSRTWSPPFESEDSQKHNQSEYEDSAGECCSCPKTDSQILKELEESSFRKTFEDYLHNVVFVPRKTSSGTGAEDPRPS
Insulin receptor, sequence (P06213 763-1382 limits assumed): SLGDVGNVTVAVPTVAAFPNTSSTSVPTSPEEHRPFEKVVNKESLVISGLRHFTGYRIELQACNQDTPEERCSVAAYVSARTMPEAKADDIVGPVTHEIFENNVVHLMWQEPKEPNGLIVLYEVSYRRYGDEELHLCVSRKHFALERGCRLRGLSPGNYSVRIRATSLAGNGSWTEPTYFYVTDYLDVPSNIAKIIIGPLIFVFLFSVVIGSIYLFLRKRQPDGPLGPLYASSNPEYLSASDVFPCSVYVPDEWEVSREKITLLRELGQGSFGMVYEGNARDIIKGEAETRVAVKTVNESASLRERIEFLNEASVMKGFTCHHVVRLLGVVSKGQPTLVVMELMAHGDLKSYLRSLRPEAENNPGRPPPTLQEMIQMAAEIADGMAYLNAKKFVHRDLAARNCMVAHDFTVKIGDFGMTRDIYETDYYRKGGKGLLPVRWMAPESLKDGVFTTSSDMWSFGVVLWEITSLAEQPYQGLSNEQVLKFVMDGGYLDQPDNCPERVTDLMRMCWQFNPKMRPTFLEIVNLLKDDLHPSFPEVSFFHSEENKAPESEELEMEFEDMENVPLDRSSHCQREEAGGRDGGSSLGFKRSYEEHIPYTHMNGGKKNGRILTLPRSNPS
Phosphatidylinositol 4,5-bisphosphate 3-kinase catalytic subunit alpha isoform (Homo sapiens), P42336 [E542K], sequence (P42336 whole entry E542K, canonical isoform): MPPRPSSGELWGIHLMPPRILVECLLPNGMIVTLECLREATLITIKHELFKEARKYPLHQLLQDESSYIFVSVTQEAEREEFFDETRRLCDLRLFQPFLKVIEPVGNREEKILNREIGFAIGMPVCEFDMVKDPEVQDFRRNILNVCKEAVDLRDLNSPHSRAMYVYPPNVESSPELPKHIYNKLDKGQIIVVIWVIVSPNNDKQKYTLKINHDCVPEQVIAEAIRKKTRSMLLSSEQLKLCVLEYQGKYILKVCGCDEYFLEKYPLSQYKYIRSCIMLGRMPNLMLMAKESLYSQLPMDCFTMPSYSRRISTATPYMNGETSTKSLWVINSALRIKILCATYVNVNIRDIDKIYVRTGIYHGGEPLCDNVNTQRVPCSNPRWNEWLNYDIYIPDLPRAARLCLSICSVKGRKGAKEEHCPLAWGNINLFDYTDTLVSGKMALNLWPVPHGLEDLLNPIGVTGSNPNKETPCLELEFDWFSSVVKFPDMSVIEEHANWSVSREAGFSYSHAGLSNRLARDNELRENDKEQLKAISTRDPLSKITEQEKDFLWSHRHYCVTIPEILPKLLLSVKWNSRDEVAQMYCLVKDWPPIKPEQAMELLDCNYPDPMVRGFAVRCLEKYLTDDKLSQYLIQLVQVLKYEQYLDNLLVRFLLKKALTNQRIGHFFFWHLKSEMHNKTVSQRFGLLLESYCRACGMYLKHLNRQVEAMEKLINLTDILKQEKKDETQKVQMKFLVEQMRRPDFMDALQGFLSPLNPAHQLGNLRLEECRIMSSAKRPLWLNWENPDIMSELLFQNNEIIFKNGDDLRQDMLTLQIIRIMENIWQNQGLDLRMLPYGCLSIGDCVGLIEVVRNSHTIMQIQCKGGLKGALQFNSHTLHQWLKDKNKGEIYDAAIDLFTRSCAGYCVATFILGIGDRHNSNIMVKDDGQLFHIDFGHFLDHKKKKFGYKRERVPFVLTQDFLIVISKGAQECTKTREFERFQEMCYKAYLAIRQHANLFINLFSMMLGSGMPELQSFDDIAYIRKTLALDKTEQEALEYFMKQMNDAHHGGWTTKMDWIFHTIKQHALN
Phosphatidylinositol 4,5-bisphosphate 3-kinase catalytic subunit alpha isoform (Homo sapiens), sequence (P42336 whole entry, canonical isoform): as the sequence (P42336 whole entry E542K, canonical isoform) above, with K542E counted along it

For the compound `O=C(NOC[C@H](O)CO)c1ccc(F)c(F)c1Nc1ccc(I)cc1F`, the % of control in test [1] was 87%.
`CNC(=O)Nc1ccc(-c2nc(N3CC4CCC(C3)O4)c3cnn(C4CCC5(CC4)OCCO5)c3n2)cc1`: the % of inhibition in test [2] is 4%.
`CC[C@@H]1[C@H](F)C(=O)N[C@@H]1COc1nccc2cc(C(N)=O)c(OC)cc12` [ZIMLOVISERTIB]: the % of inhibition in test [3] is 18.5%; in test [4] (at 0.01 µM) it was -2.4%; in test [4] (at 0.04 µM) it was 1.2%; in test [4] (at 0.2 µM) it was -29.5%; in test [4] (at 1 µM) it was -29%; in test [4] (at 5 µM) it was 14.7%. Further, in test [5], the % of inhibition amounted to 5.87%.
`CN(C)CCOc1ccc(-c2nc(-c3ccncc3)c(-c3ccc4c(c3)CC/C4=N\O)[nH]2)cc1`: the % of control in test [6] was 93%; in test [7] it was 85%.
Regarding `Cc1cc(CN)cc(C)c1-c1ncn(C)c1-c1cncn1C`, the % activity in test [8] (at 1 µM) was more than 90%; in test [8] (at 10 µM) it was more than 80%.
